Measured values reported in patent US11053213B2, “Pharmaceutical compounds” (ALMAC DISCOVERY LIMITED, priority 2016, dated 2021).

target: USP19 (Homo sapiens (Human), UniProt O94966); test: USP19 activity assay (fluorescence polarisation, Ubiquitin-Lys-TAMRA substrate); format: biochemical; details: full-length USP19 2.5 nM, 30 min pre-incubation, Ub substrate 500 nM; average of at least two duplicate experiments
Sequence (O94966 whole entry): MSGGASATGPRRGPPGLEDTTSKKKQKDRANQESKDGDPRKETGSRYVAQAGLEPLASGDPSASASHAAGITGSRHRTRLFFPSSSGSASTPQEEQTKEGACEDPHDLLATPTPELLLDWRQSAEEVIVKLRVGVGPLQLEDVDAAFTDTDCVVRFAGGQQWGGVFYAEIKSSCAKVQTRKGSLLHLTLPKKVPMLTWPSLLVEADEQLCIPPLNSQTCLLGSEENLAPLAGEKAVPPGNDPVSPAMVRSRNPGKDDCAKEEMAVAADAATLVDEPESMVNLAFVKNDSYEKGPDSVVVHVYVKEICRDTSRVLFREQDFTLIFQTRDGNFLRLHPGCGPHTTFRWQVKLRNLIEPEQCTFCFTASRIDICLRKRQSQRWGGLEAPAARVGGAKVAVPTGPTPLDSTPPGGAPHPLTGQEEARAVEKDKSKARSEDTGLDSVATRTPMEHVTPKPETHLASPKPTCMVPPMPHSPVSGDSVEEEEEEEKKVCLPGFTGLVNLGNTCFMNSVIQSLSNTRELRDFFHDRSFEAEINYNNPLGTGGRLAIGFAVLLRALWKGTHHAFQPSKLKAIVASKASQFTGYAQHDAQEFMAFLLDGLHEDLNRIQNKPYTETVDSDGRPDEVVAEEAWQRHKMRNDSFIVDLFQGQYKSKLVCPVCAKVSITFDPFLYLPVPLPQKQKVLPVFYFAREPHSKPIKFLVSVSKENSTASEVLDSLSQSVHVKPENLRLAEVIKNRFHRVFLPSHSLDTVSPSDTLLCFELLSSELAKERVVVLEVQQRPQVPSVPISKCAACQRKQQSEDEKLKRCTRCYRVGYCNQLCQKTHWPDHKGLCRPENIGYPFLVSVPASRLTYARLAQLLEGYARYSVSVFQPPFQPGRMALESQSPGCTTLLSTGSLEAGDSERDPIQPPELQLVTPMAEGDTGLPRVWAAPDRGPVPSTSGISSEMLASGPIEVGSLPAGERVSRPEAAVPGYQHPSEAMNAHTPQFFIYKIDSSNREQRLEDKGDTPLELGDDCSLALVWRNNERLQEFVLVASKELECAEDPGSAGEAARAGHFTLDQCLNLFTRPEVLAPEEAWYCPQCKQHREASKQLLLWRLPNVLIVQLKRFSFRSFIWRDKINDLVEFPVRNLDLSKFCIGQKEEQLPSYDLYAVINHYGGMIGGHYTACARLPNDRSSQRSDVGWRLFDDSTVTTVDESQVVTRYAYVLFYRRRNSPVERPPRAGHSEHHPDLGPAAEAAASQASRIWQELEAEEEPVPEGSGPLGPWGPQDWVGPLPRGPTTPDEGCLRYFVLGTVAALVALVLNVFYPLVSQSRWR

| SMILES | IC50 [µM] |
| --- | --- |
| C[C@H](CC1CCCCC1)C(=O)N1CCC(O)(Cn2cc(C(=O)N(C)C)c(-c3cccc(CO)c3)cc2=O)C2(CCCC2)C1 (stereo partly drawn) [Example 156, 1-((7-((R)-3-Cyclohexyl-2-methylpropanoyl)-10-hydroxy-7-azaspiro[4.5]decan-10-yl)methyl)-4-(3-(hydroxymethyl)phenyl)-N,N-dimethyl-6-oxo-1,6-dihydropyridine-3-carboxamide] | < 0.5 |
| C[C@H](CC1CCCCC1)C(=O)N1CCC(O)(Cn2cnc(-c3cccc(CN)c3)cc2=O)C(C)(C)C1 (stereo partly drawn) [Example 159, 6-(3-(Aminomethyl)phenyl)-3-((1-((R)-3-cyclohexyl-2-methylpropanoyl)-4-hydroxy-3,3-dimethylpiperidin-4-yl)methyl)pyrimidin-4(3H)-one] | 0.5 to 5 |
| COC[C@H](CC1CCCCC1)C(=O)N1CC[C@@](O)(Cn2cc(C(=O)N(C)C)c(-c3ccccc3)cc2=O)C(C)(C)C1 [Example 160, 1-(((S)-1-((S)-3-Cyclohexyl-2-(methoxymethyl)propanoyl)-4-hydroxy-3,3-dimethylpiperidin-4-yl)methyl)-N,N-dimethyl-6-oxo-4-phenyl-1,6-dihydropyridine-3-carboxamide] | < 0.5 |
| C[C@H](CC1CCCCC1)C(=O)N1CCC(O)(Cn2cc(C(=O)N(C)C)c(-c3ccccc3CN)cc2=O)C2(CCCC2)C1 (stereo partly drawn) [Example 161, 4-(2-(Aminomethyl)phenyl)-1-((7-((R)-3-cyclohexyl-2-methylpropanoyl)-10-hydroxy-7-azaspiro[4.5]decan-10-yl)methyl)-N,N-dimethyl-6-oxo-1,6-dihydropyridine-3-carboxamide] | 5 to 50 |
| C[C@H](CC1CCCCC1)C(=O)N1CCC(O)(Cn2cc(C(=O)N(C)C)c(-c3ccc(CO)cc3)cc2=O)C2(CCCC2)C1 (stereo partly drawn) [Example 162, 1-((7-((R)-3-Cyclohexyl-2-methylpropanoyl)-10-hydroxy-7-azaspiro[4.5]decan-10-yl)methyl)-4-(4-(hydroxymethyl)phenyl)-N,N-dimethyl-6-oxo-1,6-dihydropyridine-3-carboxamide] | < 0.5 |
| CN(C)C(=O)c1cn(C[C@]2(O)CCN(C(=O)[C@H](CCO)CC3CCCCC3)CC2(C)C)c(=O)cc1-c1ccccc1 [Example 164, 1-(((S)-1-((S)-2-(Cyclohexylmethyl)-4-hydroxybutanoyl)-4-hydroxy-3,3-dimethylpiperidin-4-yl)methyl)-N,N-dimethyl-6-oxo-4-phenyl-1,6-dihydropyridine-3-carboxamide] | < 0.5 |
| CN(C)C(=O)c1cn(C[C@@]2(O)CCN(C(=O)[C@H](CCO)CC3CCCCC3)CC2(C)C)c(=O)cc1-c1ccccc1 [Example 165, 1-(((R)-1-((S)-2-(Cyclohexylmethyl)-4-hydroxybutanoyl)-4-hydroxy-3,3-dimethylpiperidin-4-yl)methyl)-N,N-dimethyl-6-oxo-4-phenyl-1,6-dihydropyridine-3-carboxamide] | 5 to 50 |
| CN(C)C(=O)c1cn(C[C@]2(O)CCN(C(=O)[C@H](CO)CC3CCC3)CC2(C)C)c(=O)cc1-c1ccccc1 [Example 166, 1-(((S)-1-((S)-3-Cyclobutyl-2-(hydroxymethyl)propanoyl)-4-hydroxy-3,3-dimethylpiperidin-4-yl)methyl)-N,N-dimethyl-6-oxo-4-phenyl-1,6-dihydropyridine-3-carboxamide] | < 0.5 |
| C[C@H](CC1CCCCC1)C(=O)N1CCC(O)(Cn2cc(C(=O)N3CCOCC3)c(-c3ccccc3)cc2=O)C(C)(C)C1 (stereo partly drawn) [Example 168, 1-((1-((R)-3-Cyclohexyl-2-methylpropanoyl)-4-hydroxy-3,3-dimethylpiperidin-4-yl)methyl)-5-(morpholine-4-carbonyl)-4-phenylpyridin-2(1H)-one] | < 0.5 |
| CC(=O)N1CCN(C(=O)c2cn(CC3(O)CCN(C(=O)[C@H](C)CC4CCCCC4)CC3(C)C)c(=O)cc2-c2ccccc2)CC1 (stereo partly drawn) [Example 169, 5-(4-Acetylpiperazine-1-carbonyl)-1-((1-((R)-3-cyclohexyl-2-methylpropanoyl)-4-hydroxy-3,3-dimethylpiperidin-4-yl)methyl)-4-phenylpyridin-2(1H)-one] | < 0.5 |
| C[C@H](CC1CCCCC1)C(=O)N1CCC(O)(Cn2cc(C(=O)N3CCN(C)CC3)c(-c3ccccc3)cc2=O)C(C)(C)C1 (stereo partly drawn) [Example 170, 1-((1-((R)-3-Cyclohexyl-2-methylpropanoyl)-4-hydroxy-3,3-dimethylpiperidin-4-yl)methyl)-5-(4-methylpiperazine-1-carbonyl)-4-phenylpyridin-2(1H)-one] | < 0.5 |

The remaining lines, values ahead:

| IC50 [µM] | SMILES |
| --- | --- |
| < 0.5 | CN(C)C(=O)c1cn(CC2(O)CCN(C(=O)C(O)CC3CCCCC3)CC23CCCC3)c(=O)cc1-c1ccccc1 (stereo not shown) [Example 157, 1-((7-(3-Cyclohexyl-2-hydroxypropanoyl)-10-hydroxy-7-azaspiro[4.5]decan-10-yl)methyl)-N,N-dimethyl-6-oxo-4-phenyl-1,6-dihydropyridine-3-carboxamide] |
| 50 to 250 | CC(CN1CCCCC1)C(=O)N1CCC(O)(Cn2cc(C(=O)N(C)C)c(-c3ccccc3)cc2=O)C2(CCCC2)C1 (stereo not shown) [Example 158, 1-((10-Hydroxy-7-(2-methyl-3-(piperidin-1-yl)propanoyl)-7-azaspiro[4.5]decan-10-yl)methyl)-N,N-dimethyl-6-oxo-4-phenyl-1,6-dihydropyridine-3-carboxamide] |
| 5 to 50 | CC(CN1CCOCC1)C(=O)N1CCC(O)(Cn2cc(C(=O)N(C)C)c(-c3ccccc3)cc2=O)C2(CCCC2)C1 (stereo not shown) [Example 163, 1-((10-Hydroxy-7-(2-methyl-3-morpholinopropanoyl)-7-azaspiro[4.5]decan-10-yl)methyl)-N,N-dimethyl-6-oxo-4-phenyl-1,6-dihydropyridine-3-carboxamide] |
| 50 to 250 | CC(CC(=O)N1CCC(O)(Cn2cc(C(=O)N(C)C)c(-c3ccccc3)cc2=O)C2(CCCC2)C1)C(F)(F)F (stereo not shown) [Example 171, 1-((10-Hydroxy-7-(4,4,4-trifluoro-3-methylbutanoyl)-7-azaspiro[4.5]decan-10-yl)methyl)-N,N-dimethyl-6-oxo-4-phenyl-1,6-dihydropyridine-3-carboxamide] |
| 5 to 50 | CN(C)C(=O)c1cn(CC2(O)CCN(C(=O)CCC(F)(F)F)CC23CCCC3)c(=O)cc1-c1ccccc1 (stereo not shown) [Example 172, 1-((10-Hydroxy-7-(4,4,4-trifluorobutanoyl)-7-azaspiro[4.5]decan-10-yl)methyl)-N,N-dimethyl-6-oxo-4-phenyl-1,6-dihydropyridine-3-carboxamide] |
| 50 to 250 | CN(C)C(=O)c1cn(CC2(O)CCN(C(=O)CCC3CCOC3)CC23CCCC3)c(=O)cc1-c1ccccc1 (stereo not shown) [Example 173, 1-((10-Hydroxy-7-(3-(tetrahydrofuran-3-yl)propanoyl)-7-azaspiro[4.5]decan-10-yl)methyl)-N,N-dimethyl-6-oxo-4-phenyl-1,6-dihydropyridine-3-carboxamide] |
| < 0.5 | CN(C)C(=O)c1cn(CC2(O)CCN(C(=O)[C@@H]3C[C@@H]3c3ccccc3)CC23CCCC3)c(=O)cc1-c1ccccc1 (stereo partly drawn) [Example 174, 1-((10-Hydroxy-7-((1R,2S)-2-phenylcyclopropane-1-carbonyl)-7-azaspiro[4.5]decan-10-yl)methyl)-N,N-dimethyl-6-oxo-4-phenyl-1,6-dihydropyridine-3-carboxamide] |
| 50 to 250 | CN(C)C(=O)c1cn(CC2(O)CCN(C(=O)C3CC3)CC23CCCC3)c(=O)cc1-c1ccccc1 (stereo not shown) [Example 175, 1-((7-(Cyclopropanecarbonyl)-10-hydroxy-7-azaspiro[4.5]decan-10-yl)methyl)-N,N-dimethyl-6-oxo-4-phenyl-1,6-dihydropyridine-3-carboxamide] |
